ChEMBL document CHEMBL1201862, “PubChem BioAssay data set” (2004)
Several values for one entry are separate records, joined by “and”; a condition that tells them apart may be missing. Equal values may be shown once.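 Each compound was tested at five concentrations against cells in 96-well plates for 48 hours. Here, GI50 denotes the concentration required for 50% inhibition of growth.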 Activity calls are given as the source filed them. Rule as the data show it: active = GI50 up to about 1.1 µM and inactive = higher.

Legend:
Assay in all cases: DTP human tumour cell line panel, 48 h
[1] = tested on: A498
[2] = tested on: CAKI-1
[3] = tested on: DU-145
[4] = tested on: EKVX
[5] = tested on: HCC 2998
[6] = tested on: HCT-116
[7] = tested on: IGROV-1
[8] = tested on: KM12
[9] = tested on: LOX IMVI
[10] = tested on: MDA-MB-435
[11] = tested on: OVCAR-8
[12] = tested on: SF-268
[13] = tested on: SK-MEL-28
[14] = tested on: SK-MEL-2
[15] = tested on: SN12C
[16] = tested on: SNB-19
[17] = tested on: SNB-75
[18] = tested on: TK-10
[19] = tested on: MCF7

Measured: GI50

NCCSCc1ccccc1Cl
inactive: [1] 27 µM | [2] > 100 µM | [3] 43 µM | [4] 34.3 µM | [5] 18.6 µM | [6] 46.9 µM | [7] 51.4 µM | [8] 47.3 µM | [9] 25.7 µM | [10] 36 µM | [11] 43.3 µM | [12] 95.7 µM | [13] 64.6 µM | [14] 30.6 µM | [15] 43.4 µM | [16] 80.4 µM | [17] 37.5 µM | [18] 26.4 µM

COc1ccc(C2Oc3c(OC)cc(CCCO)cc3C2CO)cc1OC (configuration not stated)
inactive: [3] > 100 µM | [4] 61.4 µM and 39.9 µM | [5] > 100 µM | [6] > 100 µM | [7] > 100 µM | [8] > 100 µM and 79.3 µM | [19] 27.6 µM and 44.7 µM | [10] 70 µM and 93.5 µM | [11] > 100 µM and 89.3 µM | [12] > 100 µM | [13] 74 µM | [14] 95.1 µM | [15] > 100 µM | [16] > 100 µM | [17] > 100 µM and 77.3 µM | [18] > 100 µM

CN(CCN1C(=O)c2cccc3cccc(c23)C1=O)CCN1C(=O)c2cccc3cccc(c23)C1=O
inactive: [2] > 100 µM | [3] > 100 µM | [4] > 100 µM | [6] 5.98 µM | [7] 17.4 µM | [8] > 100 µM | [9] 58.6 µM | [19] 84.3 µM | [10] > 100 µM | [11] 5.55 µM | [12] 27.7 µM | [13] > 100 µM | [14] 45.7 µM | [15] 76 µM | [16] 3.17 µM | [17] 19.2 µM | [18] 14.1 µM

Brc1ccc2c(c1)-c1nc3c(cc1CC2)CCc1ccc(Br)cc1-3
inactive: [1] > 100 µM | [2] > 100 µM | [4] > 100 µM | [5] > 100 µM | [6] > 100 µM | [7] > 100 µM | [8] > 100 µM | [9] > 100 µM | [19] > 100 µM | [10] > 100 µM | [11] > 100 µM | [12] > 100 µM | [13] > 100 µM | [14] > 100 µM | [15] > 100 µM | [16] > 100 µM | [17] > 100 µM | [18] > 100 µM

CN(C)c1ccc(-c2c(C#N)c(O)n(NS(=O)(=O)c3ccccc3)c(=O)c2C#N)cc1
inactive: [1] > 100 µM | [2] > 100 µM | [4] > 100 µM | [5] > 100 µM | [6] > 100 µM | [7] > 100 µM | [8] > 100 µM | [9] > 100 µM | [19] > 100 µM | [10] > 100 µM | [11] > 100 µM | [12] > 100 µM | [13] > 100 µM | [14] > 100 µM | [15] > 100 µM | [16] > 100 µM | [17] > 100 µM | [18] > 100 µM

COC(=O)C1=CC2CC1C(S(=O)(=O)c1ccccc1)C2S(=O)(=O)c1ccccc1 (configuration not stated)
inactive: [1] 17.6 µM | [2] 7.83 µM | [5] 19.7 µM | [6] 14.8 µM | [7] 32.7 µM | [9] 13.7 µM | [11] 13 µM | [12] 22.9 µM | [13] 14.1 µM | [15] 14 µM | [16] > 100 µM | [18] 10.4 µM

CC1=C2CC(C)(C)CC(=O)C2(C)CCC1=O (configuration not stated)
inactive: [2] > 100 µM | [3] > 100 µM | [4] > 100 µM | [5] > 100 µM | [6] > 100 µM | [7] > 100 µM | [8] > 100 µM | [9] > 100 µM | [19] > 100 µM | [11] > 100 µM | [12] > 100 µM | [13] > 100 µM | [14] > 100 µM | [15] > 100 µM | [16] > 100 µM | [17] > 100 µM | [18] > 100 µM

O=C(O)CCC1(CCC(=O)O)CCCCCCCCC(CCC(=O)O)(CCC(=O)O)C(=O)C1=O
inactive: [2] > 100 µM | [3] > 100 µM | [4] > 100 µM | [5] > 100 µM | [6] > 100 µM | [8] > 100 µM | [9] > 100 µM | [19] > 100 µM | [10] > 100 µM | [11] > 100 µM | [12] > 100 µM | [13] > 100 µM | [14] > 100 µM | [15] > 100 µM | [16] > 100 µM | [17] > 100 µM | [18] > 100 µM

COc1ccc2nc3cc(Cl)ccc3c(NCCCNCc3cc(OC)c(OC)c(OC)c3)c2c1
inactive: [2] 1.71 µM | [3] 1.7 µM | [4] 1.47 µM | [5] 1.75 µM | [6] 1.24 µM | [7] 1.82 µM | [8] 1.64 µM | [9] 1.54 µM | [19] 1.75 µM | [10] 1.82 µM | [11] 1.77 µM | [12] 1.67 µM | [13] 1.67 µM | [14] 1.91 µM | [15] 1.53 µM | [16] 1.83 µM | [18] 1.73 µM

O=C(Nc1ccc(Cl)c(C(F)(F)F)c1)C(=O)c1c(O)c2ccccc2oc1=O
inactive: [1] > 100 µM | [2] > 100 µM | [4] > 100 µM | [5] > 100 µM | [6] > 100 µM | [7] > 100 µM | [8] > 100 µM | [9] > 100 µM | [19] > 100 µM | [10] > 100 µM | [11] > 100 µM | [12] > 100 µM | [13] > 100 µM | [14] > 100 µM | [15] > 100 µM | [16] > 100 µM | [17] > 100 µM | [18] > 100 µM

C(=N\c1ccc2c(c1)Cc1ccccc1-2)/c1ccccn1
inactive: [1] 44.3 µM | [2] > 100 µM | [3] 88.3 µM | [4] 28.8 µM | [6] 30.5 µM | [7] > 100 µM | [8] 89.3 µM | [9] 57.1 µM | [10] 77.8 µM | [11] > 100 µM | [12] 76.4 µM | [13] > 100 µM | [14] 43.3 µM | [15] 28.4 µM | [16] > 100 µM | [17] 67.6 µM | [18] 42.7 µM

COc1ccc2c(c1)C(=O)C1(C2)[C@H](c2ccccc2)C2C(=O)c3cc(OC)ccc3C2[C@H]1c1ccccc1 (some centres not stated)
inactive: [1] > 100 µM | [2] 1.75 µM | [3] > 100 µM | [4] > 100 µM | [5] > 100 µM | [6] > 100 µM | [7] > 100 µM | [8] > 100 µM | [9] > 100 µM | [10] > 100 µM | [11] > 100 µM | [12] > 100 µM | [13] > 100 µM | [15] > 100 µM | [16] > 100 µM | [17] 92.3 µM | [18] > 100 µM
